Reference: ChEMBL document CHEMBL3600292, “Anti-HIV screening for cell-penetrating peptides using chloroquine and identification of anti-HIV peptides derived from matrix proteins” (Bioorg Med Chem, 2015)
Starred links: 1 amine or outer side, 2 acyl side, 3 side chain; linkers in the order of their positions; H or OH if unused. Positions of bridges follow the written chain, without caps; N, C: chain ends. Non-standard residues stand in square brackets, D forms with d. Residues, ends and D or L forms follow the SMILES beside them. Chains are numbered I, II in the order given. Orn = NCCC[C@H](N)C(=O)O; X1 = O=C(C[*:1])[*:2]

Key:
[1] = Cytotoxicity against human PM1 cells expressing CCR5 by MTT assay in presence of 5 uM of chloroquine; type: cell-based
[2] = system: Human immunodeficiency virus 1; test: Antiviral activity against T-cell line-tropic HIV1 NL4-3 infected in human MT4 cells assessed as inhibition of virus-induced cytopathogenicity after 5 days by MTT assay in presence of 5 uM of chloroquine; type: functional, organism-based; conditions: Human immunodeficiency virus 1, NL4-3, MT4, 120 h
[3] = Cytotoxicity against human MT4 cells by MTT assay in presence of 5 uM of chloroquine; type: cell-based
[4] = system: Human immunodeficiency virus 1; test: Antiviral activity against T-cell line-tropic HIV1 NL4-3 infected in human MT4 cells assessed as inhibition of virus-induced cytopathogenicity after 5 days by MTT assay; type: functional, organism-based; conditions: Human immunodeficiency virus 1, NL4-3, MT4, 120 h
[5] = Cytotoxicity against human MT4 cells by MTT assay; type: cell-based
[6] = system: Human immunodeficiency virus 1; test: Antiviral activity against macrophage-tropic HIV1 NL(AD8) infected in human PM1 expressing CCR5 cells assessed as inhibition of virus-induced cytopathogenicity after 5 days by MTT assay in presence of 5 uM of chloroquine; type: functional, organism-based; conditions: Human immunodeficiency virus 1, NL(AD8), PM1/CCR5, 120 h

Row | Compound | CC50 [1] | EC50 [2] | CC50 [3] | EC50 [4] | CC50 [5] | EC50 [6]
1 | CC[C@H](C)[C@H](NC(=O)[C@@H](NC(=O)[C@H](CC(N)=O)NC(=O)[C@H](Cc1ccc(O)cc1)NC(=O)[C@H](CC(C)C)NC(=O)[C@H](CO)NC(=O)[C@H](CCCNC(=N)N)NC(=O)[C@H](CC(C)C)NC(=O)[C@H](CCC(=O)O)NC(=O)[C@H](CCC(=O)O)NC(=O)[C@H](CO)NC(C)=O)[C@@H](C)O)C(=O)N[C@@H](C)C(=O)N[C@H](C(=O)N[C@@H](CC(C)C)C(=O)N[C@@H](Cc1ccc(O)cc1)C(=O)NCC(=O)N[C@@H](CSCC(=O)N[C@@H](CCCNC(=N)N)C(=O)N[C@@H](CCCNC(=N)N)C(=O)N[C@@H](CCCNC(=N)N)C(=O)N[C@@H](CCCNC(=N)N)C(=O)N[C@@H](CCCNC(=N)N)C(=O)N[C@@H](CCCNC(=N)N)C(=O)N[C@@H](CCCNC(=N)N)C(=O)N[C@@H](CCCNC(=N)N)C(N)=O)C(N)=O)C(C)C | 13 µM | > 8.7 µM | 8.7 µM | > 10 µM | 10 µM | > 13 µM
2 | COC[C@@H](c1ccc(C(F)(F)F)cc1)N1CCN(C2(C)CCN(C(=O)c3c(C)ncnc3C)CC2)C[C@@H]1C [VICRIVIROC] | > 5 µM | > 5 µM | > 5 µM | > 5 µM | > 5 µM | 0.0049 µM
3 | CC[C@H](C)[C@H](NC(=O)[C@H](CCCNC(=N)N)NC(=O)[C@H](CCC(N)=O)NC(=O)[C@H](Cc1c[nH]cn1)NC(=O)[C@@H](NC(=O)[C@H](CO)NC(=O)[C@H](Cc1ccc(O)cc1)NC(=O)[C@H](CC(C)C)NC(=O)[C@@H](NC(=O)[C@H](C)NC(=O)[C@@H](NC(=O)[C@@H](NC(=O)[C@H](CC(N)=O)NC(C)=O)[C@@H](C)O)[C@@H](C)CC)C(C)C)C(C)C)C(=O)N[C@@H](CC(=O)O)C(=O)N[C@H](C(=O)NCC(=O)N[C@@H](CSCC(=O)N[C@@H](CCCNC(=N)N)C(=O)N[C@@H](CCCN)C(=O)N[C@@H](CCCNC(=N)N)C(=O)N[C@@H](CCCN)C(=O)N[C@@H](CCCNC(=N)N)C(=O)N[C@@H](CCCN)C(=O)N[C@@H](CCCNC(=N)N)C(=O)N[C@@H](CCCN)C(N)=O)C(=O)O)C(C)C (I: Ac-NTIAVLYSVHQRIDVGC-OH / II: R[Orn]R[Orn]R[Orn]R[Orn]-NH2; linker I:17-II:N via X1) | 17 µM | 2 µM | 18 µM | > 18 µM | 18 µM | 5.6 µM
4 | CC[C@H](C)[C@H](NC(=O)[C@H](CCCNC(=N)N)NC(=O)[C@H](CCC(N)=O)NC(=O)[C@H](Cc1c[nH]cn1)NC(=O)[C@@H](NC(=O)[C@H](CO)NC(=O)[C@H](Cc1ccc(O)cc1)NC(=O)[C@H](CC(C)C)NC(=O)[C@@H](NC(=O)[C@H](C)NC(=O)[C@@H](NC(=O)[C@@H](NC(=O)[C@H](CC(N)=O)NC(=O)[C@H](Cc1ccc(O)cc1)NC(C)=O)[C@@H](C)O)[C@@H](C)CC)C(C)C)C(C)C)C(=O)N[C@@H](CC(=O)O)C(=O)NCC(=O)N[C@@H](CSCC(=O)N[C@@H](CCCNC(=N)N)C(=O)N[C@@H](CCCN)C(=O)N[C@@H](CCCNC(=N)N)C(=O)N[C@@H](CCCN)C(=O)N[C@@H](CCCNC(=N)N)C(=O)N[C@@H](CCCN)C(=O)N[C@@H](CCCNC(=N)N)C(=O)N[C@@H](CCCN)C(N)=O)C(N)=O (I: Ac-YNTIAVLYSVHQRIDGC-NH2 / II: R[Orn]R[Orn]R[Orn]R[Orn]-NH2; linker I:17-II:N via X1) | 7.6 µM | 1.7 µM | 7.7 µM | > 7 µM | 7 µM | 1.4 µM
5 | CC[C@H](C)[C@H](NC(=O)[C@@H](NC(=O)[C@H](CC(N)=O)NC(=O)[C@H](Cc1ccc(O)cc1)NC(=O)[C@H](CC(C)C)NC(=O)[C@H](CO)NC(=O)[C@H](CCCNC(=N)N)NC(=O)[C@H](CC(C)C)NC(C)=O)[C@@H](C)O)C(=O)N[C@@H](C)C(=O)N[C@H](C(=O)N[C@@H](CC(C)C)C(=O)N[C@@H](Cc1ccc(O)cc1)C(=O)N[C@@H](CO)C(=O)N[C@H](C(=O)N[C@@H](Cc1c[nH]cn1)C(=O)NCC(=O)N[C@@H](CSCC(=O)N[C@@H](CCCNC(=N)N)C(=O)N[C@@H](CCCN)C(=O)N[C@@H](CCCNC(=N)N)C(=O)N[C@@H](CCCN)C(=O)N[C@@H](CCCNC(=N)N)C(=O)N[C@@H](CCCN)C(=O)N[C@@H](CCCNC(=N)N)C(=O)N[C@@H](CCCN)C(N)=O)C(N)=O)C(C)C)C(C)C | 5.2 µM | 4.6 µM | 10 µM | > 8.5 µM | 8.5 µM | > 5.2 µM
6 | CC[C@H](C)[C@H](NC(=O)[C@H](CCCCN)NC(=O)[C@@H](NC(=O)[C@H](CCC(N)=O)NC(=O)[C@H](CCCNC(=N)N)NC(=O)[C@H](C)NC(=O)[C@H](Cc1c[nH]cn1)NC(C)=O)[C@@H](C)O)C(=O)N[C@@H](Cc1ccc(O)cc1)C(=O)N[C@H](C(=O)N[C@H](C(=O)N[C@@H](CC(=O)O)C(=O)N[C@H](C(=O)N[C@@H](CC(C)C)C(=O)N[C@@H](CO)C(=O)N[C@H](C(=O)NCC(=O)N[C@@H](CSCC(=O)N[C@@H](CCCNC(=N)N)C(=O)N[C@@H](CCCN)C(=O)N[C@@H](CCCNC(=N)N)C(=O)N[C@@H](CCCN)C(=O)N[C@@H](CCCNC(=N)N)C(=O)N[C@@H](CCCN)C(=O)N[C@@H](CCCNC(=N)N)C(=O)N[C@@H](CCCN)C(N)=O)C(N)=O)C(C)C)C(C)C)C(C)C)[C@@H](C)CC (I: Ac-HARQTKIYIVDVLSVGC-NH2 / II: R[Orn]R[Orn]R[Orn]R[Orn]-NH2; linker I:17-II:N via X1) | 8.7 µM | > 8.2 µM | 8.2 µM | > 8.2 µM | 8.2 µM | > 8.7 µM
7 | CC[C@H](C)[C@H](NC(=O)[C@@H](NC(=O)[C@H](CC(N)=O)NC(=O)[C@H](Cc1ccc(O)cc1)NC(=O)[C@H](CC(C)C)NC(=O)[C@H](CO)NC(=O)[C@H](CCCNC(=N)N)NC(=O)[C@H](CC(C)C)NC(=O)[C@H](CCC(=O)O)NC(=O)[C@H](CCC(=O)O)NC(C)=O)[C@@H](C)O)C(=O)N[C@@H](C)C(=O)N[C@H](C(=O)N[C@@H](CC(C)C)C(=O)N[C@@H](Cc1ccc(O)cc1)C(=O)N[C@@H](CO)C(=O)NCC(=O)N[C@@H](CSCC(=O)N[C@@H](CCCNC(=N)N)C(=O)N[C@@H](CCCN)C(=O)N[C@@H](CCCNC(=N)N)C(=O)N[C@@H](CCCN)C(=O)N[C@@H](CCCNC(=N)N)C(=O)N[C@@H](CCCN)C(=O)N[C@@H](CCCNC(=N)N)C(=O)N[C@@H](CCCN)C(N)=O)C(N)=O)C(C)C | 9.3 µM | > 10 µM | 10 µM | > 9.3 µM | 9.3 µM | > 9.3 µM
8 | CC[C@H](C)[C@H](NC(=O)[C@@H](NC(=O)[C@H](CC(N)=O)NC(=O)[C@H](Cc1ccc(O)cc1)NC(=O)[C@H](CC(C)C)NC(=O)[C@H](CO)NC(=O)[C@H](CCCNC(=N)N)NC(C)=O)[C@@H](C)O)C(=O)N[C@@H](C)C(=O)N[C@H](C(=O)N[C@@H](CC(C)C)C(=O)N[C@@H](Cc1ccc(O)cc1)C(=O)N[C@@H](CO)C(=O)N[C@H](C(=O)N[C@@H](Cc1cnc[nH]1)C(=O)N[C@@H](CCC(N)=O)C(=O)NCC(=O)N[C@@H](CSCC(=O)N[C@@H](CCCNC(=N)N)C(=O)N[C@@H](CCCN)C(=O)N[C@@H](CCCNC(=N)N)C(=O)N[C@@H](CCCN)C(=O)N[C@@H](CCCNC(=N)N)C(=O)N[C@@H](CCCN)C(=O)N[C@@H](CCCNC(=N)N)C(=O)N[C@@H](CCCN)C(N)=O)C(N)=O)C(C)C)C(C)C (I: Ac-RSLYNTIAVLYSVHQGC-NH2 / II: R[Orn]R[Orn]R[Orn]R[Orn]-NH2; linker I:17-II:N via X1) | 8.2 µM | 0.85 µM | 9.2 µM | 5.2 µM | 9.2 µM | 1.3 µM
9 | CC[C@H](C)[C@H](NC(=O)[C@@H](NC(=O)[C@H](CC(N)=O)NC(=O)[C@H](Cc1ccc(O)cc1)NC(=O)[C@H](CC(C)C)NC(=O)[C@H](CO)NC(C)=O)[C@@H](C)O)C(=O)N[C@@H](C)C(=O)N[C@H](C(=O)N[C@@H](CC(C)C)C(=O)N[C@@H](Cc1ccc(O)cc1)C(=O)N[C@@H](CO)C(=O)N[C@H](C(=O)N[C@@H](Cc1c[nH]cn1)C(=O)N[C@@H](CCC(N)=O)C(=O)N[C@@H](CCCNC(=N)N)C(=O)NCC(=O)N[C@@H](CSCC(=O)N[C@@H](CCCNC(=N)N)C(=O)N[C@@H](CCCN)C(=O)N[C@@H](CCCNC(=N)N)C(=O)N[C@@H](CCCN)C(=O)N[C@@H](CCCNC(=N)N)C(=O)N[C@@H](CCCN)C(=O)N[C@@H](CCCNC(=N)N)C(=O)N[C@@H](CCCN)C(N)=O)C(N)=O)C(C)C)C(C)C (I: Ac-SLYNTIAVLYSVHQRGC-NH2 / II: R[Orn]R[Orn]R[Orn]R[Orn]-NH2; linker I:17-II:N via X1) | 4.6 µM | 1 µM | 4.4 µM | > 4.8 µM | 4.8 µM | > 4.6 µM
10 | CC[C@H](C)[C@H](NC(=O)[C@H](CCCNC(=N)N)NC(=O)[C@H](CCC(N)=O)NC(=O)[C@H](Cc1c[nH]cn1)NC(=O)[C@@H](NC(=O)[C@H](CO)NC(=O)[C@H](Cc1ccc(O)cc1)NC(=O)[C@H](CC(C)C)NC(=O)[C@@H](NC(=O)[C@H](C)NC(=O)[C@@H](NC(=O)[C@@H](NC(=O)[C@H](CC(N)=O)NC(=O)[C@H](Cc1ccc(O)cc1)NC(=O)[C@H](CC(C)C)NC(C)=O)[C@@H](C)O)[C@@H](C)CC)C(C)C)C(C)C)C(=O)NCC(=O)N[C@@H](CSCC(=O)N[C@@H](CCCNC(=N)N)C(=O)N[C@@H](CCCN)C(=O)N[C@@H](CCCNC(=N)N)C(=O)N[C@@H](CCCN)C(=O)N[C@@H](CCCNC(=N)N)C(=O)N[C@@H](CCCN)C(=O)N[C@@H](CCCNC(=N)N)C(=O)N[C@@H](CCCN)C(N)=O)C(N)=O (I: Ac-LYNTIAVLYSVHQRIGC-NH2 / II: R[Orn]R[Orn]R[Orn]R[Orn]-NH2; linker I:17-II:N via X1) | 8.7 µM | 0.64 µM | 12 µM | 6.3 µM | 11 µM | 2.8 µM
